Where two headings read alike, the source gives them in different places.
Assays:
[1] = tested on: maximal electroshock seizures (MES); assay: electroshock test, maximal electroshock seizures (MES), inhibition of hind limb tonus, mouse; type: in vivo; settings: read-out: Inhibition of Hind Limb Tonus ED50 (limits), MOUSE MES
Experimental: (§1) The pharmacological activity of the compounds of the invention have been determined according to the following procedures. Their anticonvulsant activity was determined in the metrazol antagonism test in mice (MMS) (Soaje-Echaque E; Lim RKS, J Pharmac Exp Ther 1962, 138, 224; Desmedt LKC; Niemegeers CJE; Lewi PJ; Janssen PAJ, Arzneim-Forsch (Drug Res), 1976, 26, 1592) and the electroshock test in mice (MES)(Tulloch IF; Walter DS; Howe GM; Howe SJ, Neuropharmacology 1982, 21, 555).

[2] = tested on: maximal electroshock seizures (MES); assay: electroshock test, maximal electroshock seizures (MES), inhibition of hind limb tonus, rat; type: in vivo; settings: read-out: Inhibition of Hind Limb Tonus ED50 (limits), RAT MES
[3] = neurotoxicity, rotorod test, mouse; type: in vivo, mice; settings: in vivo, po
Description: (§2) ^(a) Dose at which 50% of trained animals fall off the rotorod

[4] = tested on: trained animals fall off the rotorod; assay: neurotoxicity, rotorod test, mouse; type: in vivo, mice; settings: oral, rotorod
Description: as §2

[5] = tested on: maximal metrazol seizures (MMS); assay: metrazol antagonism test, maximal metrazol seizures (MMS), inhibition of hind limb tonus, mouse; type: in vivo; settings: read-out: Inhibition of Hind Limb Tonus ED50 (limits), MOUSE MMS
Experimental: as §1

[6] = tested on: electrically and chemically induced seizures; assay: anticonvulsant activity in animal tests (electrically and chemically induced seizures); type: in vivo; settings: rat and mouse, oral
Experimental: as §1

[7] = mouse, MES, oral, t=1 hour, limits in parentheses
[8] = rat, MES, oral, t=1 hour, limits in parentheses
[9] = mouse, MMS, oral, t=1 hour, limits in parentheses

Structure (SMILES) | ED50 [1, 7] [mg/kg] | ED50 [2, 8] [mg/kg] | TD50 at 1 h [3] [mg/kg] | level of neurotoxicity (in words) [4] | ED50 [5, 9] [mg/kg] | anticonvulsant activity (in words) [6] | ED50 ([1]; Mus musculus, po, 1 h) [mg/kg] | ED50 ([2]; Rattus norvegicus, po, 1 h) [mg/kg] | ED50 ([5]; Mus musculus, po, 1 h) [mg/kg]
Cl.N=C(N)Nc1nnc(-c2ccccc2C(F)(F)F)s1 [Example 1, 2-Guanidino-5-[2-(trifluoromethyl)phenyl]-1,3,4-thiadiazole hydrochloride] | 27 | 22 | 324 | acceptable level | 45 | potent anticonvulsants blocking both electrically and chemically induced seizures |  |  | 
C/N=C(\N)Nc1nnc(-c2ccccc2C(F)(F)F)s1 [Example 2, 2-(3-Methylguanidino)-5-[2-(trifluoromethyl)phenyl]-1,3,4-thiadiazole] | 49 |  | > 400 | acceptable level | 44 |  |  |  | 
NC(=O)N1c2ccccc2C=Cc2ccccc21 [carbamazepine] | 20 | 4 |  |  | 11 |  |  |  | 
CCC1(c2ccccc2)C(=O)NC(=O)NC1=O [phenobarbital] |  |  |  |  |  |  | 12 | 9 | 4
O=C1NC(=O)C(c2ccccc2)(c2ccccc2)N1 [phenytoin] | 8 | 14 |  |  | 8 |  |  |  | 

From patent publication US4786627A, “Thiadiazole guanidines” (Reckitt & Colman Products Limited, priority 1987, dated 1988)
